From the supplement of paper PMC10307832

How the values were obtained:
Test in all cases: relative viability (nuclei count vs DMSO), 5 days (fraction); higher = more cells survive
Pazopanib = compound: Cc1ccc(Nc2nccc(N(C)c3ccc4c(C)n(C)nc4c3)n2)cc1S(N)(=O)=O [Pazopanib]
Outline: (§1)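 Cells of lung cancer lines were placed in 1536-well plates and kept overnight at 37 °C. Pinning then delivered five library-drug doses (not always all listed), spaced by √10, onto plates anchored with vehicle, and the cells were left 5 days without changing medium. One step fixed, permeabilised and stained them with Hoechst, and MetaXpress counted nuclei in 4× images. Viability, as a median over plates, is treated-well nuclei divided by vehicle-well nuclei, with acceptance only at control CV below 25% and at least one doubling.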

Ponatinib = compound: Cc1ccc(C(=O)Nc2ccc(CN3CCN(C)CC3)c(C(F)(F)F)c2)cc1C#Cc1cnc2cccnn12 [Ponatinib]
Outline: as §1

Pazopanib + Pemetrexed = compound: Cc1ccc(Nc2nccc(N(C)c3ccc4c(C)n(C)nc4c3)n2)cc1S(N)(=O)=O [Pazopanib] + Nc1nc2[nH]cc(CCc3ccc(C(=O)N[C@@H](CCC(=O)O)C(=O)O)cc3)c2c(=O)[nH]1 [Pemetrexed] (partner 0.2 µM)
Outline: (§2)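 Nuclei were stained with Hoechst during a one-step fixation (final 0.05% Triton X-100, 1% formaldehyde, 1 ug/ml Hoechst) carried out 5 days after dosing, then counted on 4× images. The cells, lung cancer lines in 1536-well plates, had been dosed by pin tool the day after seeding with one drug alone or a fixed anchor-drug dose plus five library-drug doses (not always all listed) in √10 steps. Relative viability is the nuclei count in treated wells divided by that in vehicle wells, and each value is the median of duplicate plates.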

Ponatinib + OSI-027 = compound: Cc1ccc(C(=O)Nc2ccc(CN3CCN(C)CC3)c(C(F)(F)F)c2)cc1C#Cc1cnc2cccnn12 [Ponatinib] + COc1cccc2cc(-c3nc([C@H]4CC[C@H](C(=O)O)CC4)n4ncnc(N)c34)[nH]c12 [OSI-027] (partner 0.5 µM)
Outline: as §2

Row | Cell Line | relative viability (Pazopanib; 0.01 µM) | relative viability (Pazopanib; 0.03162 µM) | relative viability (Pazopanib; 0.1 µM) | relative viability (Pazopanib; 0.3162 µM) | relative viability (Pazopanib; 1 µM) | relative viability (Ponatinib; 0.002 µM) | relative viability (Ponatinib; 0.006325 µM) | relative viability (Ponatinib; 0.06325 µM) | relative viability (Ponatinib; 0.2 µM) | relative viability (Pazopanib + Pemetrexed; first compound 0.01 µM) | relative viability (Pazopanib + Pemetrexed; first compound 0.03162 µM) | relative viability (Pazopanib + Pemetrexed; first compound 0.1 µM) | relative viability (Pazopanib + Pemetrexed; first compound 0.3162 µM) | relative viability (Pazopanib + Pemetrexed; first compound 1 µM) | relative viability (Ponatinib + OSI-027; first compound 0.002 µM) | relative viability (Ponatinib + OSI-027; first compound 0.006325 µM) | relative viability (Ponatinib + OSI-027; first compound 0.06325 µM) | relative viability (Ponatinib + OSI-027; first compound 0.2 µM)
1 | HCC-366 | 0.922 | 0.989 | 1.03 | 1 | 1.1 | 1.03 | 1.04 | 1.05 | 0.989 | 0.298 | 0.141 | 0.16 | 0.159 | 0.131 | 0.821 | 0.984 | 1 | 0.655
2 | HCC-827 | 1.11 | 1.06 | 1.04 | 1.07 | 1.04 | 0.983 | 1.03 | 1.07 | 1.03 | 0.272 | 0.211 | 0.259 | 0.273 | 0.247 | 0.681 | 0.833 | 0.739 | 0.702
3 | HOP-62 | 0.963 | 1 | 1.02 | 1.07 | 0.958 | 0.921 | 0.86 | 0.912 | 0.857 | 0.366 | 0.36 | 0.339 | 0.3 | 0.224 | 0.727 | 0.759 | 0.883 | 0.72
4 | IA-LM | 0.935 | 0.995 | 1.03 | 1.05 | 0.918 | 0.872 | 0.903 | 0.953 | 0.802 |  |  |  |  |  |  |  |  | 
5 | LC-2-ad | 1 | 0.99 | 1.01 | 1.07 | 1.07 | 0.85 | 0.885 | 0.785 | 0.768 | 0.292 | 0.281 | 0.274 | 0.311 | 0.275 | 0.673 | 0.732 | 0.775 | 0.678
6 | LCLC-97TM1 |  | 1 | 0.912 | 1.02 | 1.04 | 0.925 | 0.996 | 0.961 | 0.892 |  | 0.165 | 0.136 | 0.157 | 0.154 | 0.448 | 0.561 | 0.606 | 0.28
7 | LCLC-103H | 0.762 | 1.03 | 0.984 | 0.948 | 1.04 | 0.925 | 1 | 1.05 | 0.957 | 0.447 | 0.477 | 0.399 | 0.494 | 0.491 | 0.43 | 0.382 | 0.453 | 0.419
8 | LK-2 | 0.891 | 0.965 | 0.943 | 0.928 | 0.858 | 0.872 | 1 | 0.816 | 0.73 | 0.218 | 0.243 | 0.256 | 0.346 | 0.201 | 0.151 | 0.217 | 0.162 | 0.147
9 | LOU-NH91 | 0.903 | 0.955 | 0.949 | 1.11 | 1.01 | 0.957 | 1.03 | 1.04 | 0.938 | 0.367 | 0.356 | 0.417 | 0.416 | 0.352 | 0.675 | 0.762 | 0.746 | 0.741
10 | LU99A | 0.759 | 0.909 | 1.01 | 1.03 | 1.01 | 0.94 | 1.02 | 0.943 | 0.939 |  | 0.19 | 0.182 | 0.185 | 0.136 | 0.299 | 0.319 | 0.32 | 0.278
11 | LXF-289 | 1.07 | 0.989 | 1.04 | 0.997 | 1 | 0.948 | 0.998 | 0.984 | 0.969 | 1.01 | 0.899 | 0.904 | 0.845 | 0.848 | 0.735 | 0.808 | 0.916 | 0.714
12 | NCI-H23 | 0.858 | 1.04 | 1.03 | 1.02 | 1.29 | 0.862 | 1 | 1.15 | 0.833 | 0.529 | 0.727 | 0.702 | 0.658 | 0.829 | 0.621 | 0.645 | 0.53 | 0.456
13 | NCI-H322M | 0.906 | 0.996 | 0.92 | 0.967 | 1.03 | 0.96 | 0.983 | 0.953 | 0.853 | 0.703 | 0.662 | 0.633 | 0.623 | 0.658 | 0.595 | 0.425 | 0.508 | 0.425
14 | NCI-H358 | 1.04 | 0.927 | 0.933 | 0.991 | 1.15 | 0.904 | 1.04 | 1.01 | 0.9 | 0.179 | 0.167 | 0.168 | 0.165 | 0.161 | 0.813 | 0.816 | 0.998 | 0.672
15 | NCI-H441 | 0.931 | 1.05 | 0.982 | 0.905 | 0.958 | 0.899 | 0.925 | 1.07 | 0.855 | 0.236 | 0.274 | 0.272 | 0.224 | 0.253 | 0.47 | 0.606 | 0.482 | 0.388
16 | NCI-H460 | 0.966 | 1 | 1.04 | 1.01 | 1.05 | 0.943 | 0.958 | 0.969 | 0.985 | 0.0583 | 0.0636 | 0.0629 | 0.0703 | 0.0742 | 0.605 | 0.56 | 0.637 | 0.49
17 | NCI-H727 | 0.841 | 0.907 | 0.91 | 1 | 1.16 | 0.883 | 0.855 | 1.2 | 0.872 |  |  |  |  |  | 0.567 | 0.558 | 0.617 | 0.508
18 | NCI-H1299 | 1.02 | 1.03 | 1.03 | 0.993 | 0.95 | 0.997 | 1.02 | 1.02 | 0.931 |  |  |  |  |  |  |  |  | 
19 | NCI-H1623 | 0.964 | 0.909 | 0.885 | 1.06 | 0.929 | 0.991 | 1.05 | 1.01 | 0.969 |  |  |  |  |  | 0.446 | 0.432 | 0.418 | 0.447
20 | NCI-H1703 | 0.744 | 0.735 | 0.562 | 0.353 | 0.331 | 0.821 | 0.83 | 0.466 | 0.333 |  |  |  |  |  |  |  |  | 
